Key:
[1] = molecular target: T1, PfUSP14 (PFE1355c, ubiquitin carboxyl-terminal hydrolase, putative) (Plasmodium falciparum, UniProt Q8I3J3); assay: concentration-dependent inhibition of recombinant PfUSP14 deubiquitinase activity; format: biochemical
T1 construct: gene PF3D7_0527200; recombinant hexahistidyl-tagged PfUSP14
T1 sequence (Q8I3J3 1-605): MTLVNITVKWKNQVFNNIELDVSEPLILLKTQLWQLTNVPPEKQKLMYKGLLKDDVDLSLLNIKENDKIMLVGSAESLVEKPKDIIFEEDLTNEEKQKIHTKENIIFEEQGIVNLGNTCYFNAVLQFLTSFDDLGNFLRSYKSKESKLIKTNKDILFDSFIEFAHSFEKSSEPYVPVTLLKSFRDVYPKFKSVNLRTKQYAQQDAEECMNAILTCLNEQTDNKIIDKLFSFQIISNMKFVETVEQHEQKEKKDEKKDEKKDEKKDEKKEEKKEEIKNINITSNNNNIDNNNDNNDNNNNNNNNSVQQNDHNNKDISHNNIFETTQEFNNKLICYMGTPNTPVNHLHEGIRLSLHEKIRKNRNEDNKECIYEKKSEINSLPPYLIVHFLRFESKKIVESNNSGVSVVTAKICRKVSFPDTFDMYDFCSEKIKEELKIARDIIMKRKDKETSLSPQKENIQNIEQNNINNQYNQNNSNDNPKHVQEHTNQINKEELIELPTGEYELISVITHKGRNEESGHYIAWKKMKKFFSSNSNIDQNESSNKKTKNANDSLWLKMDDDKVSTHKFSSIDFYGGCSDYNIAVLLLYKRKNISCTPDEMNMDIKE

[2] = molecular target: T2, P. falciparum 26S proteasome, β5 subunit (chymotrypsin-like activity) (Plasmodium falciparum, UniProt Q8IJT1); format: biochemical
T2 construct: gene PF3D7_1011400; with other 20S and 19S proteasome subunits
T2 sequence (Q8IJT1 61-271): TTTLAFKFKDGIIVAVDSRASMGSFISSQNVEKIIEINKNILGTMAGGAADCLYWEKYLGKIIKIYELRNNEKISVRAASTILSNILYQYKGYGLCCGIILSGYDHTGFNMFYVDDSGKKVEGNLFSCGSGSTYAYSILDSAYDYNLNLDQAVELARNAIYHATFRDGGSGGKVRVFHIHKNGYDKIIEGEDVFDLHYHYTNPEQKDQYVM
T2 sequence (A0A5K1K7U1 39-240 partner): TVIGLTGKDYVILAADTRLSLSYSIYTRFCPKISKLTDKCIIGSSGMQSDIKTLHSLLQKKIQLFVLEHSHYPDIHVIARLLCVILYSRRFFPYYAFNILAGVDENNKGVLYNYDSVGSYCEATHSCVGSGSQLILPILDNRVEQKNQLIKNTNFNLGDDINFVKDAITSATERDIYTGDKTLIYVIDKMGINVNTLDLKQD

SMILES	IC50 [1]	fluorogenic peptide (Suc-LLVY-AMC) cleavage by purified proteasome, inhibitor at [2]
C=CC(=O)N1C/C(=C\c2ccc([N+](=O)[O-])cc2)C(=O)/C(=C/c2ccc([N+](=O)[O-])cc2)C1 [b-AP15]	11.3 ± 4.7 µM	–
CC(=O)N[C@@H](CSC(=O)[C@]1([C@@H](O)C(C)C)NC(=O)[C@H](C)[C@@H]1O)C(=O)O [lactacystin]	–	the respective proteolytic activities were shown to be inhibited by the proteasome inhibitors MG132 and lactacystin

Reference: publication PMC4671066, “Characterization of the 26S proteasome network in Plasmodium falciparum” (Scientific Reports, 2015)
